Reference: publication PMC7904827 (Scientific Reports, 2021)

How the values were obtained:
[1] = 100 µM, same conditions, compared with GK-667; cited from earlier work
[2] = system: neonatal ventricular cardiomyocytes (NVCMs); test: In vitro cardioprotection bioassay against daunorubicin toxicity (LDH release); format: cell-based, rat; settings: 3 h preincubation, DAU 1.2 µM, LDH release after 48 h
Procedure: NVCMs were isolated in-house from 1- to 3-day-old Wistar rats as described previously. The use of animals and experimental protocols were approved by Charles University, Faculty of Pharmacy Animal Welfare Committee. All experiments were performed in accordance with Directive 2010/63/EU on the Protection of Animals Used for Scientific Purposes and in compliance with Animal Research: Reporting of In Vivo Experiments (ARRIVE) guidelines. Newly isolated cardiomyocytes were left for 40 h to form a monolayer of spontaneously beating cardiomyocytes in seeding medium (DMEM/F12 supplemented with 10% HS, 5% FBS, 4% PYR and 1% P/S), which was then replaced with culture medium (DMEM/F12 supplemented with 5% FBS, 4% PYR and 1% P/S). The medium was replaced again after 24 h for new culture medium.
After 3 h, DAU solution (1.2 µM) was added to the media. After another 3 h, the medium was replaced with new (drug-free) exposure medium, and the cardiomyocytes were then kept until the end of the experiment. In addition to cytoprotective properties, the toxicity of the studied agent was also examined; this experiment was performed as described above with only the DAU addition step omitted.
Forty-five hours after the last medium exchange, a sample of medium was taken from each well to assess lactate dehydrogenase (LDH) activity[27]–[29]. For details, see the Supplementary material.
1.5 LDH activity evaluation
The control wells were treated with lysis buffer (0.1 M potassium phosphate, 1% Triton
X-100, 1 mM DTT, 2 mM EDTA; pH 7.8; 15 min; room temperature) to measure the total
cellular LDH level (sum of the activity in the control medium and the lysate). The activity of
LDH was assayed in Tris-HCl buffer (pH 8.9) containing 35 mM sodium lactate and 5 mM
NAD+. The rate of NAD+ reduction was monitored spectrophotometrically at 340 nm for 2 min.
The slope of the linear region and molar absorption coefficient e = 6.22*10 3 M/cm were used
to calculate the LDH activity, and the data were expressed as a percentage of total L DH activity. […]

[3] = system: topoisomerase IIβ (TOP2B); settings: compared with DEX; cited from earlier work

Compound | decomposition in DMEM [1] | lowest concentration with significant protection against DAU-induced toxicity [2] | potency in the TOP2B inhibitory assay [3]
CC(C)COC(=O)OCN1C(=O)CN(CCN2CC(=O)N(COC(=O)OCC(C)C)C(=O)C2)CC1=O [sobuzoxane] | much slower | – | –
ICRF-193 [reference compound] | – | 0.3 µM | markedly higher potency
